In US20240115578A1, “DRUG COMPOSITION FOR TREATING PEDIATRIC CANCERS” (CHUGAI SEIYAKU KABUSHIKI KAISHA, priority 2021, published 2024):

How the values were obtained:
[1] = test system: recurrent/refractory childhood cancers; conditions: IMT with ALK fusion gene, ALCL, neuroblastoma, other malignant solid tumors; cited from earlier work
[2] = Physicochemical input parameters of alectinib for PBPK model
From the text: (§1) The PBPK model was constructed by combining alectinib-specific physicochemical information (molecular weight, logP, pKa, etc.), and the in vitro and in vivo study results obtained so far, with the physiological information on the target population in the SimCYP (registered trademark) software (Certara, Sheffield, UK) (Table 2).

[3] = Blood-to-plasma ratio and free fractions (PBPK input); assay type: in vitro ADME
From the text: as §1

[4] = Absorption parameters fitted to clinical PK profiles in Japanese adult patients (JP28927); assay type: in vivo
From the text: It was then optimized using clinical trial results in Japanese adults as parameters related to the absorption process were incorporated into the model.

[5] = Vss after intravenous administration in healthy subjects (Morcos et al.); conditions: human, in vivo, 50 μg, 475 L normalized with 74.8 kg, read-out: Actual Vss
CYP3A4 [6] = target: T1, CYP3A4 (Homo sapiens, UniProt P08684); experiment: Intrinsic clearance by CYP3A4; assay type: in vitro ADME
T1 sequence (P08684 whole entry): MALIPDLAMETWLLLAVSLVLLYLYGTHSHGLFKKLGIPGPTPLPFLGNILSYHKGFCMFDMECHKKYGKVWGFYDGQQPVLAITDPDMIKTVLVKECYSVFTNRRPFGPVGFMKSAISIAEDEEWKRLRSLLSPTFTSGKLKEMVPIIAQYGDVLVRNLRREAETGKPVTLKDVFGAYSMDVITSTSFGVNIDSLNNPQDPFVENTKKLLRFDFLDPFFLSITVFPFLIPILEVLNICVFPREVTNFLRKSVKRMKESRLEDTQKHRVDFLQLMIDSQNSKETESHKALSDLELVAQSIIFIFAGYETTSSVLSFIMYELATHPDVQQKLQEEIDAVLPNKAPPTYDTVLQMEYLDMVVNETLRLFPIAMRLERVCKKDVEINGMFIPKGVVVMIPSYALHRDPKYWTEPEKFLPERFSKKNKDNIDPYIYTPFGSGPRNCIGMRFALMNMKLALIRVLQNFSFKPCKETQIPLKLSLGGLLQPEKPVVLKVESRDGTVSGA
From the text: For pediatric PK prediction, especially for children under the age of 2 years, the need to consider developmental changes in the expression of drug-metabolizing enzymes and the like, in addition to the changes in body size associated with growth, has been reported (C Wagner, P Zhao, Y Pan, V Hsu, J Grillo, S M Huang, V Sinha. Application of Physiologically Based Pharmacokinetic (PBPK) Modeling to Support Dose Selection: Report of an FDA Public Workshop on PBPK. CPT Pharmacometrics Syst Pharmacol. 2015 April; 4(4): 226-30).
as §1
To predict pediatric PK, the physiological information on Japanese adults was replaced with that on Japanese children. […] The inter-individual variability in blood concentration on this simulation was calculated based on Japanese demographic data (Japanese pediatric demographic data source from Japanese Ministry of Health, Labour, and Welfare. Available from: […]

CYP2J2 = experiment: Intrinsic clearance assigned to CYP2J2; assay type: in vitro ADME; conditions: CYP2J2 arbitrarily assigned, true enzyme not known
From the text: as §1

[7] = Intrinsic clearance, other HLM; assay type: in vitro ADME; conditions: human, human liver microsomes; PBPK input; read-out: CLint, HLMother
From the text: as §1

CYP2C8 = target: T2, CYP2C8 (Homo sapiens, UniProt P10632); experiment: Competitive CYP2C8 inhibition; assay type: biochemical; conditions: PBPK input
T2 sequence (P10632 1-490): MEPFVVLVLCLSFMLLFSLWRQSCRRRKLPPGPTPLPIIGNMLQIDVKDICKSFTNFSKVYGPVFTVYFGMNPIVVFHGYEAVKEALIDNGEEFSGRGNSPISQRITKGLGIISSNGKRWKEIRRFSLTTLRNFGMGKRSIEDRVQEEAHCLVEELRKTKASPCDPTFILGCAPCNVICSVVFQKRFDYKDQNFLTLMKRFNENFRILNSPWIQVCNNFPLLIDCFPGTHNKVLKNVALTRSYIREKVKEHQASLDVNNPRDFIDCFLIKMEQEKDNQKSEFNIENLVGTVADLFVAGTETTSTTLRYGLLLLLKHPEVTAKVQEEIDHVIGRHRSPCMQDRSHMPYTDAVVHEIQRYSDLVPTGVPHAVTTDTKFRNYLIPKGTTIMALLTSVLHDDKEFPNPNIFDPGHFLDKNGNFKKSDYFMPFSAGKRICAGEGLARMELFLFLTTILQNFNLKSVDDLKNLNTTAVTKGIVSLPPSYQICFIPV
From the text: as §1

CYP3A4 [8] = target: T1, CYP3A4; experiment: Mechanism-based CYP3A4 inhibition; assay type: biochemical; conditions: PBPK input; read-out: Mechanism-based inhibitor CYP3A4 inhibition Ki
From the text: as §1

CYP3A4 [9] = experiment: CYP3A4 induction; assay type: in vitro ADME; conditions: PBPK input
From the text: as §1

[10] = fitted, multiple p.o. with standard meal, 150 mg capsule, Japanese adult patients

| logP [2] | pKa 1 ([2]; monoprotic base) | fuGut [3] | QGUT ([4]; first-order absorption model (assumed)) | Fa [4, 10] | Lag time [4, 10] | ka [4, 10] | Vd [5] | Contribution of CYP3A4 to hepatic metabolic clearance (CYP3A4 [6]) | microsomal CLint [7] | Ki (CYP2C8) | Ki (CYP3A4 [8]) | CYP3A4 induction Indslope (CYP3A4 [9]) | SMILES | Clinical efficacy in childhood cancers [1] | CLint, CYP3A4 (CYP3A4 [6]; PBPK input) | CLint, CYP2J2 (CYP2J2) |
| --- | --- | --- | --- | --- | --- | --- | --- | --- | --- | --- | --- | --- | --- | --- | --- | --- |
| – | – | – | – | – | – | – | – | – | – | – | – | – | C[C@@H](Oc1cc(-c2cnn(C3CCNCC3)c2)cnc1N)c1c(Cl)ccc(F)c1Cl [crizotinib] | has clinical efficacy in these childhood cancers | – | – |
| 1.96 | 7.05 | 0.01 | 8.49 L/h | 0.48 | 2.92 h | 0.22 h⁻¹ | 6.35 L/kg | about 40% | 1710 µL/min/mg | 0.147 µM | 8.29 µM | 3.52 µM⁻¹ | CCc1cc2c(cc1N1CCC(N3CCOCC3)CC1)C(C)(C)c1[nH]c3cc(C#N)ccc3c1C2=O [alectinib, 9-ethyl-6,6-dimethyl-8-(4-morpholin-4-yl-piperidin-1-yl)-11-oxo-6,11-dihydro-5H-benzo[b]carbazole-3-carbonitrile] | – | 9.98 μL/min/pmol of μL/min/pmol of isoform | 285 μL/min/pmol of μL/min/pmol of isoform |
